Key:
[1] = Determination of urinary excretions of isoflavonoids in perimenopausal women (survey)
Description: To accomplish the above object, the inventors first conducted a dietary survey, determination of urinary excretions of isoflavonoids, and a questionnaire survey about menopausal syndrome (unidentified clinical syndrome) in perimenopausal women in a broad geographical area including urban communities.
Furthermore, women with paramenia and those within 5 years of the menopause being taken together as menopausal subjects, a questionnaire survey was conducted using 17 items which are in routine use in the diagnosis of menopausal syndrome [17 items as a modification of Kupperman menopausal index (Kupperman H. S., et al., (1953), J. Clin. Endocrinol. Metabol., 13, 688-703), i.e. 1. hot flushes, 2. perspiration, 3. local sensation of cold, 4. shortness of breath, 5. numbness of limbs, 6. hypesthesia, 7. difficulty in falling asleep, 8. fitful sleep, 9. irritability, 10. nervousness, 11. melancholy, 12. vertigo, nausea, 13. weakness(fatigue), 14. stiff shoulders, pain in joints, muscular pain, 15. headache, 16. palpitation, 17. tingling sensation] and the simplified menopausal index (SMI) was calculated. With subjects with SMI values not less than 20 being taken as a group of high climacteric symptoms and those with SMI values not greater than 19 as a group of low climacteric symptoms, the amount of intake of isoflavonoids and the urinary excretion of isoflavonoids were respectively compared between the groups.

[2] = human, in vivo
[3] = Urinary excretion of isoflavonoids after single ingestion of soy milk in healthy adult volunteers; settings: healthy adult volunteers 25-33 years of age
[4] = SMI not less than 20 vs SMI not greater than 19, equol p<0.01

Row | SMILES | average excretions of equol (urinary) ([1]; in vivo) [µmol/day] | subjects in whom detected in urine ([1]; in vivo) | urinary excretions, group of high climacteric symptoms vs group of low climacteric symptoms ([1]; in vivo) | equol in urine when intake of soy milk increased two-fold [2] | urinary excretions, group of high climacteric symptoms vs group of low climacteric symptoms [1, 4] | average urinary excretions of isoflavonoids ([1]; female, human, in vivo) [µmol/day] | urinary excretions after single ingestion of soy milk [3] | subjects in whom detected in urine ([1]; of the 95 subjects, number (%)) | average urinary excretions of isoflavonoids ([1]; women aged between 40 and 60) [µmol/day]
1 | Oc1ccc(C2COc3cc(O)ccc3C2)cc1 (centres unmarked) [equol] | 11.9 | 46 (51.6%) | significantly low | not detected |  |  |  |  | 
2 | O=c1c(-c2ccc(O)cc2)coc2cc(O)ccc12 [daidzein] |  |  |  |  | no intergroup difference | 19.6 | increased in a dose-related fashion |  | 
3 | O=c1c(-c2ccc(O)cc2)coc2cc(O)cc(O)c12 [genistein] |  |  |  |  | no intergroup difference |  | increased in a dose-related fashion | detected in all the subjects | 10.0

Reference: patent US7345089B2, “Microbial method of making equol-containing composition and product made” (Otsuka Pharmaceutical Co., Ltd., priority 1997, dated 2008)
